Test results taken from ChEMBL document CHEMBL3045021, “Synthesis, antibacterial, and antifungal activities of biolabile (E)-1-(4-morpholinophenyl)-3-aryl-prop-2-en-1-ones” (2009).
The source made the active and inactive calls. The rule behind the calls is not given here.

Legend:
Format in all cases: functional
[1] = test system: Rhizopus; assay: Antimicrobial activity against Rhizopus at 100 ppm after 72 to 96 hr by disk diffusion method
[2] = test system: Pseudomonas; assay: Antimicrobial activity against Pseudomonas at 200 ppm after 24 hr by disk diffusion method; settings: read-out: IZ
[3] = test system: Rhizopus; assay: Antimicrobial activity against Rhizopus at 500 ppm after 72 to 96 hr by disk diffusion method; settings: read-out: IZ
[4] = test system: Mucor; assay: Antimicrobial activity against Mucor at 500 ppm after 72 to 96 hr by disk diffusion method; settings: read-out: IZ
[5] = test system: Vibrio cholerae; assay: Antimicrobial activity against Vibrio cholerae at 100 ppm after 24 hr by disk diffusion method; settings: read-out: IZ
[6] = test system: Aspergillus flavus; assay: Antimicrobial activity against Aspergillus flavus at 200 ppm after 72 to 96 hr by disk diffusion method; settings: read-out: IZ
[7] = test system: Pseudomonas; assay: Antimicrobial activity against Pseudomonas at 100 ppm after 24 hr by disk diffusion method; settings: for zone of inhibition at 100 ppm: read-out: IZ
[8] = test system: Mucor; assay: Antimicrobial activity against Mucor at 200 ppm after 72 to 96 hr by disk diffusion method; settings: read-out: IZ
[9] = test system: Nannizzia gypsea; assay: Antimicrobial activity against Microsporum gypseum at 100 ppm after 72 to 96 hr by disk diffusion method; settings: for zone of inhibition at 100 ppm: read-out: IZ
[10] = test system: Nannizzia gypsea; assay: Antimicrobial activity against Microsporum gypseum at 500 ppm after 72 to 96 hr by disk diffusion method; settings: read-out: IZ
[11] = test system: Nannizzia gypsea; assay: Antimicrobial activity against Microsporum gypseum at 200 ppm after 72 to 96 hr by disk diffusion method; settings: for zone of inhibition at 200 ppm: read-out: IZ
[12] = test system: Vibrio cholerae; assay: Antimicrobial activity against Vibrio cholerae at 200 ppm after 24 hr by disk diffusion method; settings: read-out: IZ
[13] = test system: Klebsiella pneumoniae; assay: Antimicrobial activity against Klebsiella pneumoniae at 200 ppm after 24 hr by disk diffusion method; settings: read-out: IZ
[14] = test system: Salmonella typhi; assay: Antimicrobial activity against Salmonella enterica subsp. enterica serovar Typhi at 100 ppm after 24 hr by disk diffusion method; settings: for zone of inhibition at 100 ppm: read-out: IZ
[15] = test system: Streptococcus; assay: Antimicrobial activity against beta-hemolytic Streptococcus at 100 ppm after 24 hr by disk diffusion method; settings: for zone of inhibition at 100 ppm: read-out: IZ
[16] = test system: Escherichia coli; assay: Antimicrobial activity against Escherichia coli at 500 ppm after 24 hr by disk diffusion method; settings: read-out: IZ
[17] = test system: Klebsiella pneumoniae; assay: Antimicrobial activity against Klebsiella pneumoniae at 100 ppm after 24 hr by disk diffusion method; settings: for zone of inhibition at 100 ppm: read-out: IZ
[18] = test system: Aspergillus flavus; assay: Antimicrobial activity against Aspergillus flavus at 100 ppm after 72 to 96 hr by disk diffusion method; settings: for zone of inhibition at 100 ppm: read-out: IZ
[19] = test system: Salmonella typhi; assay: Antimicrobial activity against Salmonella enterica subsp. enterica serovar Typhi at 500 ppm after 24 hr by disk diffusion method; settings: read-out: IZ
[20] = test system: Salmonella typhi; assay: Antimicrobial activity against Salmonella enterica subsp. enterica serovar Typhi at 200 ppm after 24 hr by disk diffusion method; settings: read-out: IZ
[21] = test system: Staphylococcus aureus; assay: Antimicrobial activity against Staphylococcus aureus at 500 ppm after 24 hr by disk diffusion method; settings: read-out: IZ
[22] = test system: Shigella flexneri; assay: Antimicrobial activity against Shigella flexneri at 500 ppm after 24 hr by disk diffusion method; settings: read-out: IZ
[23] = test system: Streptococcus; assay: Antimicrobial activity against beta-hemolytic Streptococcus at 200 ppm after 24 hr by disk diffusion method; settings: read-out: IZ
[24] = test system: Streptococcus; assay: Antimicrobial activity against beta-hemolytic Streptococcus at 500 ppm after 24 hr by disk diffusion method; settings: read-out: IZ
[25] = test system: Staphylococcus aureus; assay: Antimicrobial activity against Staphylococcus aureus at 100 ppm after 24 hr by disk diffusion method
[26] = test system: Klebsiella pneumoniae; assay: Antimicrobial activity against Klebsiella pneumoniae at 500 ppm after 24 hr by disk diffusion method; settings: read-out: IZ
[27] = test system: Escherichia coli; assay: Antimicrobial activity against Escherichia coli at 100 ppm after 24 hr by disk diffusion method
[28] = test system: Escherichia coli; assay: Antimicrobial activity against Escherichia coli at 200 ppm after 24 hr by disk diffusion method; settings: read-out: IZ
[29] = test system: Staphylococcus aureus; assay: Antimicrobial activity against Staphylococcus aureus at 200 ppm after 24 hr by disk diffusion method; settings: read-out: IZ
[30] = test system: Shigella flexneri; assay: Antimicrobial activity against Shigella flexneri at 100 ppm after 24 hr by disk diffusion method; settings: for zone of inhibition at 100 ppm: read-out: IZ
[31] = test system: Aspergillus flavus; assay: Antimicrobial activity against Aspergillus flavus at 500 ppm after 72 to 96 hr by disk diffusion method; settings: read-out: IZ
[32] = test system: Shigella flexneri; assay: Antimicrobial activity against Shigella flexneri at 200 ppm after 24 hr by disk diffusion method; settings: read-out: IZ
[33] = test system: Mucor; assay: Antimicrobial activity against Mucor at 100 ppm after 72 to 96 hr by disk diffusion method; settings: for zone of inhibition at 100 ppm: read-out: IZ
[34] = test system: Pseudomonas; assay: Antimicrobial activity against Pseudomonas at 500 ppm after 24 hr by disk diffusion method; settings: read-out: IZ
[35] = test system: Rhizopus; assay: Antimicrobial activity against Rhizopus at 200 ppm after 72 to 96 hr by disk diffusion method; settings: for zone of inhibition at 200 ppm: read-out: IZ
[36] = test system: Vibrio cholerae; assay: Antimicrobial activity against Vibrio cholerae at 500 ppm after 24 hr by disk diffusion method; settings: read-out: IZ

Cc1ccc(/C=C/C(=O)c2ccc(N3CCOCC3)cc2)cc1
zone of inhibition at 100 ppm ([1]; read-out: IZ): 12 mm | zone of inhibition at 200 ppm [2]: 22 mm | zone of inhibition at 500 ppm [3]: 17 mm | zone of inhibition at 500 ppm [4]: 17 mm | zone of inhibition at 100 ppm [5]: 12 mm | zone of inhibition at 200 ppm [6]: 12 mm | zone of inhibition at 100 ppm [7]: 17 mm | zone of inhibition at 200 ppm [8]: 12 mm | zone of inhibition at 100 ppm [9]: 12 mm | zone of inhibition at 500 ppm [10]: 17 mm | inhibition zone (IZ) [11]: inactive | zone of inhibition at 200 ppm [12]: 12 mm | zone of inhibition at 200 ppm [13]: 17 mm | zone of inhibition at 100 ppm [14]: 12 mm | zone of inhibition at 100 ppm [15]: 12 mm | zone of inhibition at 500 ppm [16]: 17 mm | zone of inhibition at 100 ppm [17]: 12 mm | zone of inhibition at 100 ppm [18]: 12 mm | zone of inhibition at 500 ppm [19]: 17 mm | zone of inhibition at 200 ppm [20]: 17 mm | zone of inhibition at 500 ppm [21]: 30 mm | zone of inhibition at 500 ppm [22]: 30 mm | zone of inhibition at 200 ppm [23]: 17 mm | zone of inhibition at 500 ppm [24]: 30 mm | inhibition zone (IZ) [25]: inactive | zone of inhibition at 500 ppm [26]: 30 mm | inhibition zone (IZ) [27]: inactive | zone of inhibition at 200 ppm [28]: 12 mm | zone of inhibition at 200 ppm [29]: 17 mm | zone of inhibition at 100 ppm [30]: 12 mm | zone of inhibition at 500 ppm [31]: 17 mm | zone of inhibition at 200 ppm [32]: 17 mm | zone of inhibition at 100 ppm [33]: 12 mm | zone of inhibition at 500 ppm [34]: 30 mm | inhibition zone (IZ) [35]: inactive | zone of inhibition at 500 ppm [36]: 17 mm

O=C(/C=C/c1ccc(F)cc1)c1ccc(N2CCOCC2)cc1
inhibition zone (IZ) [1]: inactive | zone of inhibition at 200 ppm [2]: 22 mm | zone of inhibition at 500 ppm [3]: 22 mm | zone of inhibition at 500 ppm [4]: 22 mm | zone of inhibition at 100 ppm [5]: 12 mm | zone of inhibition at 200 ppm [6]: 17 mm | inhibition zone (IZ) [7]: inactive | zone of inhibition at 200 ppm [8]: 17 mm | inhibition zone (IZ) [9]: inactive | zone of inhibition at 500 ppm [10]: 30 mm | zone of inhibition at 200 ppm [11]: 17 mm | zone of inhibition at 200 ppm [12]: 17 mm | zone of inhibition at 200 ppm [13]: 12 mm | zone of inhibition at 100 ppm [14]: 12 mm | inhibition zone (IZ) [15]: inactive | zone of inhibition at 500 ppm [16]: 17 mm | inhibition zone (IZ) [17]: inactive | zone of inhibition at 100 ppm [18]: 12 mm | zone of inhibition at 500 ppm [19]: 17 mm | zone of inhibition at 200 ppm [20]: 17 mm | zone of inhibition at 500 ppm [21]: 22 mm | zone of inhibition at 500 ppm [22]: 22 mm | zone of inhibition at 200 ppm [23]: 17 mm | zone of inhibition at 500 ppm [24]: 22 mm | inhibition zone (IZ) [25]: inactive | zone of inhibition at 500 ppm [26]: 22 mm | inhibition zone (IZ) [27]: inactive | zone of inhibition at 200 ppm [28]: 17 mm | zone of inhibition at 200 ppm [29]: 17 mm | inhibition zone (IZ) [30]: inactive | zone of inhibition at 500 ppm [31]: 30 mm | zone of inhibition at 200 ppm [32]: 17 mm | inhibition zone (IZ) [33]: inactive | zone of inhibition at 500 ppm [34]: 30 mm | zone of inhibition at 200 ppm [35]: 17 mm | zone of inhibition at 500 ppm [36]: 17 mm

O=C(/C=C/c1ccc(Cl)cc1)c1ccc(N2CCOCC2)cc1
inhibition zone (IZ) [1]: inactive | zone of inhibition at 200 ppm [2]: 22 mm | zone of inhibition at 500 ppm [3]: 30 mm | zone of inhibition at 500 ppm [4]: 22 mm | zone of inhibition at 100 ppm [5]: 12 mm | zone of inhibition at 200 ppm [6]: 22 mm | zone of inhibition at 100 ppm [7]: 17 mm | zone of inhibition at 200 ppm [8]: 17 mm | zone of inhibition at 100 ppm [9]: 12 mm | zone of inhibition at 500 ppm [10]: 22 mm | zone of inhibition at 200 ppm [11]: 17 mm | zone of inhibition at 200 ppm [12]: 17 mm | zone of inhibition at 200 ppm [13]: 22 mm | inhibition zone (IZ) [14]: inactive | zone of inhibition at 100 ppm [15]: 12 mm | zone of inhibition at 500 ppm [16]: 17 mm | zone of inhibition at 100 ppm [17]: 12 mm | inhibition zone (IZ) [18]: inactive | zone of inhibition at 500 ppm [19]: 22 mm | zone of inhibition at 200 ppm [20]: 17 mm | zone of inhibition at 500 ppm [21]: 22 mm | zone of inhibition at 500 ppm [22]: 22 mm | zone of inhibition at 200 ppm [23]: 17 mm | zone of inhibition at 500 ppm [24]: 22 mm | zone of inhibition at 100 ppm ([25]; read-out: IZ): 12 mm | zone of inhibition at 500 ppm [26]: 30 mm | zone of inhibition at 100 ppm ([27]; read-out: IZ): 12 mm | zone of inhibition at 200 ppm [28]: 17 mm | zone of inhibition at 200 ppm [29]: 17 mm | zone of inhibition at 100 ppm [30]: 17 mm | zone of inhibition at 500 ppm [31]: 30 mm | zone of inhibition at 200 ppm [32]: 17 mm | zone of inhibition at 100 ppm [33]: 12 mm | zone of inhibition at 500 ppm [34]: 30 mm | zone of inhibition at 200 ppm [35]: 17 mm | zone of inhibition at 500 ppm [36]: 17 mm
